Results as given in PMC3445516 (PLoS ONE, 2012).
Where two headings read alike, the source gives them in different places.

Key:
Assay in all cases: Ambit kinase profiling, competition binding
[1] = molecular target: T1, KIT(V559D) (Homo sapiens, UniProt P10721, V559D)
T1 construct: purchased Ambit Biosciences (KINOMEscan)
Method: (§1) Also included in the kinase profile are four isoforms of PKC (δ, ε, η, θ) and eight isoforms of CAMKs (CAMKIα, δ, γ; CAMKIIα, β, δ, γ; CAMK4).
(§2) The global kinase profiling experiment was performed by Ambit Biosciences.

[2] = molecular target: T2, IRAK3 (Homo sapiens, UniProt Q9Y616)
T2 construct: purchased Ambit Biosciences (KINOMEscan)
T2 sequence (Q9Y616 1-596): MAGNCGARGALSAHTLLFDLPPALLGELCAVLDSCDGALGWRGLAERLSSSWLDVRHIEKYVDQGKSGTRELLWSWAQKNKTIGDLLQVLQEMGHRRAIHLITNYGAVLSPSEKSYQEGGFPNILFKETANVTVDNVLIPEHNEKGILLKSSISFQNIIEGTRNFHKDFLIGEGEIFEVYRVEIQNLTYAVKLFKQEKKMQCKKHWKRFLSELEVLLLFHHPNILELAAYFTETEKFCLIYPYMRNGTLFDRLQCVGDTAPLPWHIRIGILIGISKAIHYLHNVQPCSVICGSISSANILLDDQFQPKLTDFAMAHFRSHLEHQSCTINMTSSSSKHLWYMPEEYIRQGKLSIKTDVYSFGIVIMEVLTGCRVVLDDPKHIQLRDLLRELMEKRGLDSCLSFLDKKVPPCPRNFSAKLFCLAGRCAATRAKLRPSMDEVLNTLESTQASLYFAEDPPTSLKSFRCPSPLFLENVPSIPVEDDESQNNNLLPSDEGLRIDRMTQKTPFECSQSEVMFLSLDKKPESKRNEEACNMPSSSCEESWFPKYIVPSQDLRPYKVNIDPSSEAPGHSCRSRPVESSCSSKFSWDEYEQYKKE
Method: as §1, §2

[3] = molecular target: T3, TAOK3 (Homo sapiens, UniProt Q9H2K8)
T3 construct: purchased Ambit Biosciences (KINOMEscan)
T3 sequence (Q9H2K8 1-898): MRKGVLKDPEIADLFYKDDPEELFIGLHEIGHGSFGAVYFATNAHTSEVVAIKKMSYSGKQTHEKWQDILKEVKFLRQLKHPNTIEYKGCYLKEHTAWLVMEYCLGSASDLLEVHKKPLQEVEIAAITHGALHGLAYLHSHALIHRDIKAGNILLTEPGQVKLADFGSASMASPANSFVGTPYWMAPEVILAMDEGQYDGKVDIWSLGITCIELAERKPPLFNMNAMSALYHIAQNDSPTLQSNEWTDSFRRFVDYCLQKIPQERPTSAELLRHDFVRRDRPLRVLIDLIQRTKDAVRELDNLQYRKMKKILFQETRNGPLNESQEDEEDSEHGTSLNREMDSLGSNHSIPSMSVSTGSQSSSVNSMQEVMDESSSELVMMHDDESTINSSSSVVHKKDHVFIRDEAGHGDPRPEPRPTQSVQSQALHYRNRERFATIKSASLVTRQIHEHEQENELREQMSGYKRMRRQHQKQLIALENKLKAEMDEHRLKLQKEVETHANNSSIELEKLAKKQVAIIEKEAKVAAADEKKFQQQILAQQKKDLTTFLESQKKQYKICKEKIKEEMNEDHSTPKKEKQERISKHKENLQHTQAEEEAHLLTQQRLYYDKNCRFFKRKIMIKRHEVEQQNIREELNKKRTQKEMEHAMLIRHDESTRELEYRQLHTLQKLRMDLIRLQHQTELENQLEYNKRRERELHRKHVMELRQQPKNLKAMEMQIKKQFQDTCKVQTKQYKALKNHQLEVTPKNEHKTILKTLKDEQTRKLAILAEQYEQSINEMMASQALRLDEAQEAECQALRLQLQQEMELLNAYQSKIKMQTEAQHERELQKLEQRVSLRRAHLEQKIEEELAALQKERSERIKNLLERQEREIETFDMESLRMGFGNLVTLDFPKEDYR
Method: as §1, §2

[4] = molecular target: T4, DMPK2 (Homo sapiens, UniProt Q6DT37)
T4 construct: purchased Ambit Biosciences (KINOMEscan)
T4 sequence (Q6DT37 whole entry): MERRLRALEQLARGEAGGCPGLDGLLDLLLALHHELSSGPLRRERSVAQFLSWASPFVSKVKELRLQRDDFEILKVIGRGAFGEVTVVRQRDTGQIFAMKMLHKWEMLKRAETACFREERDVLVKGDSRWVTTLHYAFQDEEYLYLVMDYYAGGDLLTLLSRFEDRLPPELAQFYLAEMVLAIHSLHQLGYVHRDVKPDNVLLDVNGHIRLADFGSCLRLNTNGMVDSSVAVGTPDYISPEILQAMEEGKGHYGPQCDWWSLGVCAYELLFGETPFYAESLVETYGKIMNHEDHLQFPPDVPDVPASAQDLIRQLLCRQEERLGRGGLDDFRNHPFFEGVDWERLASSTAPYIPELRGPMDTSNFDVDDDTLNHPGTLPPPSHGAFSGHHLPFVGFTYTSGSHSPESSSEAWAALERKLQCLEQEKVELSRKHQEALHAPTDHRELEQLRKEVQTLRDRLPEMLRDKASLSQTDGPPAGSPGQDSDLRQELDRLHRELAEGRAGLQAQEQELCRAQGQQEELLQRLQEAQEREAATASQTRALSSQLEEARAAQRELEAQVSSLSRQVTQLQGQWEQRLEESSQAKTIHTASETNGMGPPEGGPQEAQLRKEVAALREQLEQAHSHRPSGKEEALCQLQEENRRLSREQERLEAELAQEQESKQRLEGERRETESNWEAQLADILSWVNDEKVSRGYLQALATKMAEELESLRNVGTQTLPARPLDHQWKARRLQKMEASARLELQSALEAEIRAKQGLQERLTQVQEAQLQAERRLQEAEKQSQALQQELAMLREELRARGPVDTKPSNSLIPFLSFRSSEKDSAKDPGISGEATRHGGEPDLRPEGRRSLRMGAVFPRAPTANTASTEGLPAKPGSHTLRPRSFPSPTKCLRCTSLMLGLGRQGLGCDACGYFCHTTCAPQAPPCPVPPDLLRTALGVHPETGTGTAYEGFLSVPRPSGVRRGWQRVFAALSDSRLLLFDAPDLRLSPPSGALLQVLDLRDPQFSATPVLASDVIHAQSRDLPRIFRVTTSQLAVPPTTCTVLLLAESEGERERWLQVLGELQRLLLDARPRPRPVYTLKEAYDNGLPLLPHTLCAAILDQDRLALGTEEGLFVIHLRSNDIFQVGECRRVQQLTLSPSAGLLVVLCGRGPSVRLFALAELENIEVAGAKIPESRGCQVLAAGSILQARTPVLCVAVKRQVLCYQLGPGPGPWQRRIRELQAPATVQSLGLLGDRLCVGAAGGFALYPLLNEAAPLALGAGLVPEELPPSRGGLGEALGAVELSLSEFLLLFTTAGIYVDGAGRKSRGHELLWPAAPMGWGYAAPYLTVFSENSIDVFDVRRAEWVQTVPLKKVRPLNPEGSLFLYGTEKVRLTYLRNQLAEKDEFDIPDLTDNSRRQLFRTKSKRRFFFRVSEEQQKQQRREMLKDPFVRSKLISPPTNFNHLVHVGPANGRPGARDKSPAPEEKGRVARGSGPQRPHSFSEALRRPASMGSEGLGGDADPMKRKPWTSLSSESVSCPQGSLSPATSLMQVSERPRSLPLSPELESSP
Method: as §1, §2

[5] = molecular target: T5, SNARK (Homo sapiens, UniProt Q9H093); conditions: for % Competition: 10 µM
T5 construct: purchased Ambit Biosciences (KINOMEscan)
T5 sequence (Q9H093 1-628): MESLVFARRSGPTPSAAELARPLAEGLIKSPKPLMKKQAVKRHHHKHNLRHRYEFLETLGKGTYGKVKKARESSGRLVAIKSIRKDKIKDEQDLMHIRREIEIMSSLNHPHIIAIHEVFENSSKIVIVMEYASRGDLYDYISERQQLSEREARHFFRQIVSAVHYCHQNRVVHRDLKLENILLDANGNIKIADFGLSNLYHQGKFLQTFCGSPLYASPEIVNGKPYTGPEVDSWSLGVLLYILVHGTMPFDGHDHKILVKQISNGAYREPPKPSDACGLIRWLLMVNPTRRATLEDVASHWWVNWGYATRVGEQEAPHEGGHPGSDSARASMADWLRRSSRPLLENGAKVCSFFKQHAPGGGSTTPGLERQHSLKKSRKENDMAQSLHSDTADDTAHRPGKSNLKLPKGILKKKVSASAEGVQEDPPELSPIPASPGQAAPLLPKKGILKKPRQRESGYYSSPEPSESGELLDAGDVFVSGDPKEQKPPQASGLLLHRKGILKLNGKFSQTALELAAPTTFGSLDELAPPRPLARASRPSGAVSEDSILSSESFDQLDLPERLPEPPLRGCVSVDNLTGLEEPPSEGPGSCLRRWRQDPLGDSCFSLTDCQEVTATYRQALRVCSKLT
Method: as §1, §2

T1 sequence (P10721 26-976 V559D): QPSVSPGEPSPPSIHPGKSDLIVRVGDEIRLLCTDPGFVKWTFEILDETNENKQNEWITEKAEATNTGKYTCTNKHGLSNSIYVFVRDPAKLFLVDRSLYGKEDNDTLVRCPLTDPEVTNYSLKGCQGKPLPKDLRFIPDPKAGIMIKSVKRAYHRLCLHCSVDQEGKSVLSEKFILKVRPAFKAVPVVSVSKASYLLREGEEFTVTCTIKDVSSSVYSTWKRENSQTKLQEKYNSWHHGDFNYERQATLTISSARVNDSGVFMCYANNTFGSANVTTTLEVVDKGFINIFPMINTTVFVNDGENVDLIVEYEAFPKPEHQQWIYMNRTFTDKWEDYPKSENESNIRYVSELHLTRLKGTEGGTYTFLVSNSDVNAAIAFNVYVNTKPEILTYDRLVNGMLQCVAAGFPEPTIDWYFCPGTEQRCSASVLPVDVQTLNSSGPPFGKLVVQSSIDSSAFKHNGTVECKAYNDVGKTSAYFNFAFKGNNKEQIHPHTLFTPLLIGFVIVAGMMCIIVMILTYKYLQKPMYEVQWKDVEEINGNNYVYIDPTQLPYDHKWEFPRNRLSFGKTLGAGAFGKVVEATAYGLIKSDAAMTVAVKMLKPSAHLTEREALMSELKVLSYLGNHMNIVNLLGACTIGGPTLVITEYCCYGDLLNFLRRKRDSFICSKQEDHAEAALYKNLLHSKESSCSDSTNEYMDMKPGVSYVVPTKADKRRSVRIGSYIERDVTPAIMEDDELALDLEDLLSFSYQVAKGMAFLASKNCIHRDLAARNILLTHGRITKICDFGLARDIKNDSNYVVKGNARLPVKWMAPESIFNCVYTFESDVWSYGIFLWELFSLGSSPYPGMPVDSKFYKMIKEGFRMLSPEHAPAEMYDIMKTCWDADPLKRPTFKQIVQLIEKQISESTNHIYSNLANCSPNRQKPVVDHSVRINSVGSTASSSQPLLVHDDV

| Structure (SMILES) | inhibition at 10 µM ([1]; KIT(V559D), 10 µM, read-out: % Competition) | inhibition at 10 µM ([2]; IRAK3, 10 µM, read-out: % Competition) | inhibition at 10 µM ([3]; TAOK3, 10 µM, read-out: % Competition) | inhibition at 10 µM ([4]; DMPK2, 10 µM, read-out: % Competition) | % Competition [5] | inhibition at 10 µM ([1]; read-out: % Competition) | inhibition at 10 µM ([2]; read-out: % Competition) | inhibition at 10 µM ([3]; read-out: % Competition) | inhibition at 10 µM ([4]; read-out: % Competition) | inhibition at 10 µM ([1]; KIT(V559D), compound concentration 10 uM, read-out: Percent Competition) | inhibition at 10 µM ([2]; IRAK3, compound concentration 10 uM, read-out: Percent Competition) | inhibition at 10 µM ([3]; TAOK3, compound concentration 10 uM, read-out: Percent Competition) | inhibition at 10 µM ([4]; DMPK2, compound concentration 10 uM, read-out: Percent Competition) | Percent Competition ([5]; compound concentration 10 uM) |
| --- | --- | --- | --- | --- | --- | --- | --- | --- | --- | --- | --- | --- | --- | --- |
| Fc1ccc(-c2c(-c3ccncc3)[nH]c3nccnc23)cc1 [Compound 122] | 75% | 75% | 80% | 100% | 89% | – | – | – | – | – | – | – | – | – |
| CC(O)CNc1cc(-c2[nH]c3cccnc3c2-c2ccc(F)cc2)ccn1 (stereo not drawn) [Compound 140] | – | – | – | – | <50% | < 50% | < 50% | < 50% | 74% | – | – | – | – | – |
| Fc1ccc(-c2c(-c3ccncc3)[nH]c3nccnc23)cc1 [RO1155697-000-005] | – | – | – | – | – | – | – | – | – | 75% | 75% | 80% | 100% | 89% |
